Patent US10336732B2, “1-heterocyclyl isochromanyl compounds and analogs for treating CNS disorders” (Sunovion Pharmaceuticals Inc., priority 2015, dated 2019)

What follows are compounds tested on mice (assay: Neuropharmacological assay (SmartCube), behavioral signature of compound-treated mice). Conditions: i.p. 15 min before behavioral test, most efficacious dose(s) of 3 doses.
Type: in vivo
How it was run: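 Read-out is an automated video-based behavioral signature, scored as per-class probabilities (e.g., anxiolytic, antidepressant) against reference compounds. Dosing was i.p. at three doses, 15 min pre-test, in NMP, polyethylene glycol and propylene glycol. Values shown are from the most efficacious dose(s).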
With C[C@@]1([C@@H]2CCCN2)OCc2cc(F)ccc21 [Compound I-122, (S)-2-((R)-5-fluoro-1-methyl-1,3-dihydroisobenzofuran-1-yl)pyrrolidine] the “AD: ADHD (probability that behavioral signature matches class)” value (“AD: ADHD” below) was “+ (LOQ ≤ + <5%)”, the “AG: analgesic (probability that behavioral signature matches class)” value (“AG: analgesic” below) was “+ (LOQ ≤ + <5%)” and the “AX: anxiolytic (probability that behavioral signature matches class)” value (“AX: anxiolytic” for short) was “++ (5% ≤ ++ <25%)”. For the same compound, the “CE: cognitive enhancer (probability that behavioral signature matches class)” value (shortened to “CE: cognitive enhancer”) was “+ (LOQ ≤ + <5%)”, the “DP: anti-depressant (probability that behavioral signature matches class)” value (“DP: anti-depressant” below) was “++ (5% ≤ ++ <25%)” and the “HA: hallucinogen (probability that behavioral signature matches class)” value (shortened to “HA: hallucinogen”) was “+ (LOQ ≤ + <5%)”. The “MS: mood stabilizer (probability that behavioral signature matches class)” value (from here on “MS: mood stabilizer”) was “+ (LOQ ≤ + <5%)”, the “PS: anti-psychotic (probability that behavioral signature matches class)” value (“PS: anti-psychotic” below) was “+ (LOQ ≤ + <5%)” and the “SD: sedative hypnotic (probability that behavioral signature matches class)” value (from here on “SD: sedative hypnotic”) was “+ (LOQ ≤ + <5%)”. The “UN: uncharacterized CNS activity (probability that behavioral signature matches class)” value (from here on “UN: uncharacterized CNS activity”) was “+ (LOQ ≤ + <5%)” and the “XG: anxiogenic (probability that behavioral signature matches class)” value (“XG: anxiogenic” for short) was “+ (LOQ ≤ + <5%)”.
In the case of C[C@]1([C@@H]2CCCN2)OCc2cc(F)ccc21 [Compound I-123, (S)-2-((S)-5-fluoro-1-methyl-1,3-dihydroisobenzofuran-1-yl)pyrrolidine], the “AD: ADHD” value was “+ (LOQ ≤ + <5%)”, the “AG: analgesic” value was “+ (LOQ ≤ + <5%)” and the “AX: anxiolytic” value was “+ (LOQ ≤ + <5%)”. For the same compound, the “CE: cognitive enhancer” value was “+ (LOQ ≤ + <5%)”, the “DP: anti-depressant” value was “+ (LOQ ≤ + <5%)” and the “HA: hallucinogen” value was “+ (LOQ ≤ + <5%)”. For the same compound, the “MS: mood stabilizer” value was “+ (LOQ ≤ + <5%)”, the “PS: anti-psychotic” value was “+ (LOQ ≤ + <5%)” and the “SD: sedative hypnotic” value was “+ (LOQ ≤ + <5%)”. The “UN: uncharacterized CNS activity” value was “+ (LOQ ≤ + <5%)” and the “XG: anxiogenic” value was “+ (LOQ ≤ + <5%)”.
For C[C@@]1([C@H]2CCCN2)OCc2cc(F)ccc21 [Compound I-124, (R)-2-((R)-5-fluoro-1-methyl-1,3-dihydroisobenzofuran-1-yl)pyrrolidine], the “AD: ADHD” value was “+ (LOQ ≤ + <5%)”, the “AG: analgesic” value was “+ (LOQ ≤ + <5%)” and the “AX: anxiolytic” value was “+ (LOQ ≤ + <5%)”. For the same compound, the “CE: cognitive enhancer” value was “+ (LOQ ≤ + <5%)”, the “DP: anti-depressant” value was “+ (LOQ ≤ + <5%)” and the “HA: hallucinogen” value was “+ (LOQ ≤ + <5%)”. The “MS: mood stabilizer” value was “+ (LOQ ≤ + <5%)”, the “PS: anti-psychotic” value was “+ (LOQ ≤ + <5%)” and the “SD: sedative hypnotic” value was “+ (LOQ ≤ + <5%)”. For the same compound, the “UN: uncharacterized CNS activity” value was “+ (LOQ ≤ + <5%)” and the “XG: anxiogenic” value was “+ (LOQ ≤ + <5%)”.
C[C@]1([C@H]2CCCN2)OCc2cc(F)ccc21 [Compound I-125, (R)-2-((S)-5-fluoro-1-methyl-1,3-dihydroisobenzofuran-1-yl)pyrrolidine] was tested, and the “AD: ADHD” value was “+ (LOQ ≤ + <5%)”, the “AG: analgesic” value was “++ (5% ≤ ++ <25%)” and the “AX: anxiolytic” value was “++ (5% ≤ ++ <25%)”. For the same compound, the “CE: cognitive enhancer” value was “++ (5% ≤ ++ <25%)”, the “DP: anti-depressant” value was “++++ (50% ≤ ++++)” and the “HA: hallucinogen” value was “+ (LOQ ≤ + <5%)”. The “MS: mood stabilizer” value was “+ (LOQ ≤ + <5%)”, the “PS: anti-psychotic” value was “+ (LOQ ≤ + <5%)” and the “SD: sedative hypnotic” value was “++ (5% ≤ ++ <25%)”. For the same compound, the “UN: uncharacterized CNS activity” value was “+ (LOQ ≤ + <5%)” and the “XG: anxiogenic” value was “+ (LOQ ≤ + <5%)”.
In the case of Fc1ccc2c(c1)CO[C@@H]2[C@@H]1CCN1 [Compound I-126, (S)-2-((S)-5-fluoro-1,3-dihydroisobenzofuran-1-yl)azetidine], the “AD: ADHD” value was “+ (LOQ ≤ + <5%)”, the “AG: analgesic” value was “++ (5% ≤ ++ <25%)” and the “AX: anxiolytic” value was “++ (5% ≤ ++ <25%)”. The “CE: cognitive enhancer” value was “++ (5% ≤ ++ <25%)”, the “DP: anti-depressant” value was “+++ (25% ≤ +++ <50%)” and the “HA: hallucinogen” value was “+ (LOQ ≤ + <5%)”. The “MS: mood stabilizer” value was “+ (LOQ ≤ + <5%)”, the “PS: anti-psychotic” value was “+++ (25% ≤ +++ <50%)” and the “SD: sedative hypnotic” value was “++ (5% ≤ ++ <25%)”. For the same compound, the “UN: uncharacterized CNS activity” value was “++ (5% ≤ ++ <25%)” and the “XG: anxiogenic” value was “+ (LOQ ≤ + <5%)”.
Fc1ccc2c(c1)CO[C@@H]2[C@H]1CCN1 [Compound I-127, (R)-2-((S)-5-fluoro-1,3-dihydroisobenzofuran-1-yl)azetidine] was tested, and the “AD: ADHD” value was “+ (LOQ ≤ + <5%)”, the “AG: analgesic” value was “++ (5% ≤ ++ <25%)” and the “AX: anxiolytic” value was “++ (5% ≤ ++ <25%)”. For the same compound, the “CE: cognitive enhancer” value was “++ (5% ≤ ++ <25%)”, the “DP: anti-depressant” value was “++ (5% ≤ ++ <25%)” and the “HA: hallucinogen” value was “+ (LOQ ≤ + <5%)”. The “MS: mood stabilizer” value was “+ (LOQ ≤ + <5%)”, the “PS: anti-psychotic” value was “++ (5% ≤ ++ <25%)” and the “SD: sedative hypnotic” value was “+ (LOQ ≤ + <5%)”. The “UN: uncharacterized CNS activity” value was “++ (5% ≤ ++ <25%)” and the “XG: anxiogenic” value was “+ (LOQ ≤ + <5%)”.
In the case of Fc1ccc2c(c1)CO[C@H]2[C@H]1CCN1 [Compound I-128, (R)-2-((R)-5-fluoro-1,3-dihydroisobenzofuran-1-yl)azetidine], the “AD: ADHD” value was “+ (LOQ ≤ + <5%)”, the “AG: analgesic” value was “++ (5% ≤ ++ <25%)” and the “AX: anxiolytic” value was “++ (5% ≤ ++ <25%)”. The “CE: cognitive enhancer” value was “+ (LOQ ≤ + <5%)”, the “DP: anti-depressant” value was “++ (5% ≤ ++ <25%)” and the “HA: hallucinogen” value was “+ (LOQ ≤ + <5%)”. For the same compound, the “MS: mood stabilizer” value was “+ (LOQ ≤ + <5%)”, the “PS: anti-psychotic” value was “++++ (50% ≤ ++++)” and the “SD: sedative hypnotic” value was “+ (LOQ ≤ + <5%)”. For the same compound, the “UN: uncharacterized CNS activity” value was “+ (LOQ ≤ + <5%)” and the “XG: anxiogenic” value was “+ (LOQ ≤ + <5%)”.
In the case of OC1CO[C@@H]([C@@H]2CCCN2)c2ccc(F)cc21 (stereo partly drawn) [Compound I-134, (1R)-6-fluoro-1-((S)-pyrrolidin-2-yl)isochroman-4-ol], the “AD: ADHD” value was “+ (LOQ ≤ + <5%)”, the “AG: analgesic” value was “+ (LOQ ≤ + <5%)” and the “AX: anxiolytic” value was “++ (5% ≤ ++ <25%)”. For the same compound, the “CE: cognitive enhancer” value was “+ (LOQ ≤ + <5%)”, the “DP: anti-depressant” value was “+ (LOQ ≤ + <5%)” and the “HA: hallucinogen” value was “+ (LOQ ≤ + <5%)”. The “MS: mood stabilizer” value was “+ (LOQ ≤ + <5%)”, the “PS: anti-psychotic” value was “+ (LOQ ≤ + <5%)” and the “SD: sedative hypnotic” value was “+ (LOQ ≤ + <5%)”. For the same compound, the “UN: uncharacterized CNS activity” value was “+ (LOQ ≤ + <5%)” and the “XG: anxiogenic” value was “+ (LOQ ≤ + <5%)”.
With Fc1ccc2c(c1)[C@H](F)CO[C@H]2[C@@H]1CCN1 [Compound I-135, (2S)-2-((1R)-4,6-difluoroisochroman-1-yl)azetidine] the “AD: ADHD” value was “+ (LOQ ≤ + <5%)”, the “AG: analgesic” value was “++ (5% ≤ ++ <25%)” and the “AX: anxiolytic” value was “++ (5% ≤ ++ <25%)”. For the same compound, the “CE: cognitive enhancer” value was “++ (5% ≤ ++ <25%)”, the “DP: anti-depressant” value was “++ (5% ≤ ++ <25%)” and the “HA: hallucinogen” value was “+ (LOQ ≤ + <5%)”. The “MS: mood stabilizer” value was “++ (5% ≤ ++ <25%)”, the “PS: anti-psychotic” value was “+++ (25% ≤ +++ <50%)” and the “SD: sedative hypnotic” value was “++ (5% ≤ ++ <25%)”. For the same compound, the “UN: uncharacterized CNS activity” value was “++ (5% ≤ ++ <25%)” and the “XG: anxiogenic” value was “+ (LOQ ≤ + <5%)”.
For Fc1ccc2c(c1)[C@H](F)CO[C@H]2[C@@H]1CCCN1 [Compound I-137, (S)-2-((1R,4S)-4,6-difluoroisochroman-1-yl)pyrrolidine], the “AD: ADHD” value was “+ (LOQ ≤ + <5%)”, the “AG: analgesic” value was “++ (5% ≤ ++ <25%)” and the “AX: anxiolytic” value was “++ (5% ≤ ++ <25%)”. For the same compound, the “CE: cognitive enhancer” value was “++ (5% ≤ ++ <25%)”, the “DP: anti-depressant” value was “++ (5% ≤ ++ <25%)” and the “HA: hallucinogen” value was “+ (LOQ ≤ + <5%)”. For the same compound, the “MS: mood stabilizer” value was “++ (5% ≤ ++ <25%)”, the “PS: anti-psychotic” value was “++++ (50% ≤ ++++)” and the “SD: sedative hypnotic” value was “++ (5% ≤ ++ <25%)”. For the same compound, the “UN: uncharacterized CNS activity” value was “++ (5% ≤ ++ <25%)” and the “XG: anxiogenic” value was “+ (LOQ ≤ + <5%)”.
With Fc1ccc2c(c1)[C@@H](F)CO[C@H]2[C@@H]1CCCN1 [Compound I-138, (S)-2-((1R,4R)-4,6-difluoroisochroman-1-yl)pyrrolidine] the “AD: ADHD” value was “+ (LOQ ≤ + <5%)”, the “AG: analgesic” value was “+ (LOQ ≤ + <5%)” and the “AX: anxiolytic” value was “++ (5% ≤ ++ <25%)”. The “CE: cognitive enhancer” value was “+ (LOQ ≤ + <5%)”, the “DP: anti-depressant” value was “++ (5% ≤ ++ <25%)” and the “HA: hallucinogen” value was “+ (LOQ ≤ + <5%)”. For the same compound, the “MS: mood stabilizer” value was “+ (LOQ ≤ + <5%)”, the “PS: anti-psychotic” value was “+++ (25% ≤ +++ <50%)” and the “SD: sedative hypnotic” value was “+ (LOQ ≤ + <5%)”. The “UN: uncharacterized CNS activity” value was “++ (5% ≤ ++ <25%)” and the “XG: anxiogenic” value was “+ (LOQ ≤ + <5%)”.
